Reference: patent publication US20240009212A1, “PHOSPHAPLATIN COMPOUNDS AS THERAPEUTIC AGENTS SELECTIVELY TARGETING HIGHLY GLYCOLYTIC TUMOR CELLS AND METHODS THEREOF” (Promontory Therapeutics Inc., priority 2020, published 2024)
Peptide text beside a SMILES is read from it. * marks the point of attachment. Cbz = O=C(OCc1ccccc1)*; CH2F = FC*

How the values were obtained:
Format in all cases: cell-based, mouse
[1] = test system: glycolytic cells sensitive to PT-112-induced cell death; assay: Apoptosis and necroptosis inhibition of PT-112-induced cell death; conditions: 1 h pretreatment (Z-VAD-fmk 50 μM, necrostatin-1 30 μM), then 10 μM PT-112 for 48 h
Description: Cells (3×10^4) were seeded in a 96-well plate and incubated with a pan-caspase-inhibitor Z-VAD-fmk (50 μM, MedChem Express, New Jersey, USA) and/or RIPK-1 inhibitor necrostatin-1 (30 μM, MedChem Express, New Jersey, USA) for 1 h. After that, cells were treated with 10 μM of PT-112 and incubated for 48 h at 37° C. Both inhibitors were refreshed in their corresponding well after 24 h. Finally, cell death was assessed using flow cytometry after incubation with annexin-V-FITC and 7-AAD for 10 minutes. […] For this purpose, a FITC-labelled anti-caspase-3 antibody that detects cleaved, active caspase-3 by flow cytometry was used. Cells (3×10^4) were treated with 10 μM of PT-112 for 24-72 h. Then, cells were incubated with anti-cleaved caspase-3 labelled with FITC dye and analyzed by flow cytometry. […] The implications of caspase-3 activation in this process were investigated by tested the ability of the general pan-caspase inhibitor Z-VAD-fmk and/or the necroptosis inhibitor necrostatin-1 to prevent cell death induced by PT-112 (FIG. 4B). Cells were pretreated for 1 h with or without pan-caspase or/and necroptosis inhibitors and then, incubated with 10 μM of PT-112 for 48 h. Flow cytometry analysis was carried-out using annexin-V-FITC and 7-AAD staining. Cells were stained simultaneously with annexin-V-FITC and 7-AAD and the percentage of the different populations analyzed by flow cytometry. […]

L929dt and L929^dt cells [2] = assay: Mitochondrial ROS production (MitoSOX), sensitive cells
Description: Total ROS production and mitochondrial membrane potential were simultaneously measured using a FACScalibur flow cytometer. Pretreated cells with PT-112 were incubated with DiOC6 at 20 nM (Molecular Probes, Madrid) and DHE at 2 μM (Molecular Probes, Madrid) for 30 min at 37° C. For specific mitochondrial ROS production, cells were incubated with MitoSOX™ (5 μM, ThermoFisher, Rockford, USA) for 30 minutes at 37° C.
In order to obtain more evidence about the mechanism of action of PT-112, its effect on ROS production was analyzed. First, a time-course determination of total ROS generation by detection of 2HE oxidation was performed by flow cytometry. […] To complete this study, specific mitochondrial ROS production upon PT-112 treatment using the MitoSOX™ reagent was determined.
However, this effect can be due to direct reactivity of the thiol group with Pt, inactivating the cytotoxic potential of PT-112, and not to the elimination of ROS generation. This hypothesis was confirmed by incubating PT-112 with GSH during 1 h in the absence of cells and adding this GSH-treated PT-112 to cells, showing no cytotoxicity (FIG. 6). […] Since PT-112-induced ROS generation seems to be concentrated in mitochondria, the mitochondria-specific ROS scavenger MitoTEMPO was used. Cells (3×10^4) were seeded in a 96-well plate in phenol red-free medium and were incubated with 100 μM of MitoTEMPO for 2 h. Then, 10 μM of PT-112 was added and incubated for 48 and 72 h at 37° C.

L929dt and L929^dt cells [3] = assay: ROS scavengers on PT-112-induced cell death; conditions: for effect on PT-112-induced cell death: ROS scavenger plus 10 μM PT-112 (GSH 5 mM, 72 h)
L929 and dt^L929 cells = assay: MTT relative cell growth, OXPHOS-competent cells; conditions: 72 h, higher doses
Description: (§1) Cell Culture and Generation of Cybrids Mouse fibroblast cell lines L929 and L929-derived (L929dt) were routinely cultured in high glucose DMEM medium with GlutaMAX (Life Technologies, Paisley, UK) supplemented with 10% of fetal calf serum (FCS), penicillin (1000 U/ml) and streptomycin (10 mg/ml) (PanBiotech, Aidenbach, Germany) at 37° C. and 5% CO2 using standard procedures. The transmitochondrial cell lines L929^dt and dt^L929 were obtained as previously described (Schmidt, W., et al. (1993) 53:799-805) and cultured with the identical medium used with the parental cells. For L929-ρ^0 cells, complete DMEM medium was also supplemented with 100 pyruvate (100 μg/ml) and uridine (50 μg/ml).
(§2) Relative cell growth was measured using the Mossman's method. 3×10^4 cells were seeded per well in a 96-well flat-bottomed plate and incubated with increasing concentrations of PT-112 or cisplatin (2, 6, and 10 μM) for 24-72 h at 37° C. […] During the incubation time, viable cells reduce MTT solution in insoluble purple formazan crystals, solubilized afterwards with isopropanol and 0.05 M HCl mixture and the absorbance was measured in a microplate reader (Dynatec, Pina de Ebro, Spain).
(§3) The sensitivity of L929, L929dt and cybrid cells to PT-112 was compared. […] The ability of both drugs to inhibit cell growth was assessed by the MTT reduction method. […]

[4] = test system: L929, L929dt and cybrids cells; assay: Cytotoxicity, annexin-V-FITC/7-AAD flow cytometry; conditions: 10 μM, 24, 48 or 72 h
Description: Cytotoxicity assays were carried-out as follows: 100 μl aliquots of 3×10^4 cells were seeded per well in 96-well plate and 10 μM of PT-112 or cisplatin was added and incubated for 24-72 h at 37° C. Cell death was analyzed using a FACScalibur flow cytometer (BD Biosciences) after incubation with Annexin-V-FITC and/or 7-AAD (BD Biosciences, Madrid) in annexin binding buffer (140 mM NaCl, 2.5 mM CaCl2), 10 mM HEPES/NaOH, pH 7.4) for 10 minutes.
To test cell death induction by PT-112 and cisplatin, the parental cells L929, L929dt and cybrids cells were incubated with 10 μM of PT-112 or cisplatin for 24, 48 or 72 h and, at the end of the incubations, simultaneously stained with annexin-V-FITC and 7-AAD and analyzed by flow cytometry. […] The results are shown as mean±SD of at least 2 independent experiments made in duplicate. […] On the contrary, in cells treated with PT-112, this population is not observed at any time point in sensitive L929dt and L929^dt cells, and a population double positive for both markers is at short times of exposure, increasing with time (FIG. 2B, bar sections colored in white). Finally, at longer times, a population positive for 7-AAD and negative for annexin-V staining appears for both cell lines, typical of necrotic cell death (FIG. 2B, sections colored in grey).

[5] = test system: L929dt and L929^dt cybrid cells; assay: MTT relative cell growth, glycolytic cells; conditions: 72 h, highest dose (10 μM)
Description: as §1, §2, §3

L929-ρ^0 cells = assay: MTT relative cell growth, rho0 cells; conditions: 2, 6 and 10 μM, 24-72 h
Description: as §1
Relative cell growth was measured using the Mossman's method. 3×10^4 cells were seeded per well in a 96-well flat-bottomed plate and incubated with increasing concentrations of PT-112 or cisplatin (2, 6, and 10 μM) for 24-72 h at 37° C. Then, 10 μl of a 5 mg/ml MTT dye solution was added per well and incubated for 3 hours. During the incubation time, viable cells reduce MTT solution in insoluble purple formazan crystals, solubilized afterwards with isopropanol and 0.05 M HCl mixture and the absorbance was measured in a microplate reader (Dynatec, Pina de Ebro, Spain). […]

In the case of `COC(=O)C[C@H](NC(=O)[C@H](C)NC(=O)[C@@H](NC(=O)OCc1ccccc1)C(C)C)C(=O)CF` [Z-VAD-fmk] (Cbz-Val-Ala-Asp(OMe)-CH2F), the “prevention of cell death induced by PT-112” value [1] is reported as “did not inhibit cell death”.
`CC1(C)CC(NC(=O)C[P+](c2ccccc2)(c2ccccc2)c2ccccc2)CC(C)(C)N1[O]` [MitoTEMPO] was tested, and the “inhibition of mitochondrial superoxide generation induced by PT-112” value (L929dt and L929^dt cells [2]; 100 μM MitoTEMPO 2 h, then 10 μM PT-112, L929dt cells) was “only partially”, the “inhibition of mitochondrial superoxide generation induced by antimycin A” value (L929dt and L929^dt cells [2]; 100 μM MitoTEMPO, L929dt cells) was “almost completely abolish” and the “protection from PT-112-induced L929dt cell death” value (L929dt and L929^dt cells [3]; 100 μM MitoTEMPO, 10 μM PT-112, statistically significant after 72 h) was “partial protection”.
In the case of `CC1(C)CCCC(C)(C)N1[O]` [TEMPO], the “effect on PT-112-induced cell death” value (L929dt and L929^dt cells [3]) is reported as “neither of them were able to prevent”.
In the case of `N.N.[Cl][Pt][Cl]` [cisplatin], the growth inhibition (L929 and dt^L929 cells) is reported as 70%, the cell death induction [4] is reported as “induces cell death in all cell lines” and the growth inhibition [5] is reported as 95%. The cell growth (L929-ρ^0 cells) was “inhibited the growth”.
For `Cc1c(C)c2c(c(C)c1O)CC[C@@](C)(CCC[C@H](C)CCC[C@H](C)CCCC(C)C)O2` [α-tocopherol], the “effect on PT-112-induced cell death” value (L929dt and L929^dt cells [3]) was “neither of them were able to prevent”.
In the case of `CN1C(=O)C(Cc2c[nH]c3ccccc23)NC1=S` (centres unmarked) [necrostatin-1], the “prevention of cell death induced by PT-112” value [1] is reported as “did not inhibit cell death”.
`O=C(O)c1ccc(/C2=C3\C=CC(=N3)/C(c3ccc(C(=O)O)cc3)=c3/cc/c4[n]3[Mn]([Cl])[n]3c2ccc3/C(c2ccc(C(=O)O)cc2)=C2/C=CC(=N2)\C=4c2ccc(C(=O)O)cc2)cc1` [MnTBAP] was tested, and the “effect on PT-112-induced cell death” value (L929dt and L929^dt cells [3]) was “neither of them were able to prevent”.
With `N[C@@H](CCC(=O)N[C@@H](CS)C(=O)NCC(=O)O)C(=O)O` [glutathione] the “effect on PT-112-induced cell death” value (L929dt and L929^dt cells [3]) was “completely abolished”.
For antimycin A, the “mitochondrial superoxide anion, MFI” value (L929dt and L929^dt cells [2]; L929dt cells, MitoSOX, FIG. 7) was 128.
